≈ marks a conversion by molar mass, not a printed value.
Molecular target: T1, Saccharomyces cerevisiae α-glucosidase
T1 construct: gene MAL12; commercial enzyme from Sigma Chemical Co
Assay: pNPG hydrolysis, absorbance at […] nm
Assay type: biochemical
Settings: p-NPG (10 mmol/L stock, 50 μL), 0.1 mol/L potassium phosphate pH 7, 37 °C, 20 min preincubation

[1] = value lies below the stated tested range (0.02-0.25, unit printed as μg/mL in footnote)

Structure (SMILES) | EC50 | EC50 [1]
C=C(CC[C@@H](C)[C@H]1CC[C@H]2C3=C(C(=O)C[C@]12C)[C@@]1(C)CCC(=O)[C@@H](C)[C@@H]1CC3=O)[C@H](C)C(=O)O [compound 5, 25S-antcin B] | 210 ± 7.6 µg/mL (≈ 448 µM) | 
C=C(CC[C@@H](C(=O)O)[C@H]1CC[C@@]2(C)C3=CC[C@H]4C(C)(C)[C@@H](O)CC[C@]4(C)C3=CC[C@]12C)C(C)C [compound 7, dehydroeburicoic acid] |  | 18 ± 0.2 µg/mL (≈ 38.4 µM)
C=C(CC[C@@H](C)[C@H]1CC[C@H]2C3=C(C(=O)C[C@]12C)[C@@]1(C)CC[C@@H](O)[C@](C)(O)[C@@H]1C[C@@H]3O)[C@@H](C)C(=O)O [compound 2, 25R-antcin K] | 54 ± 0.4 µg/mL (≈ 111 µM) | 
C=C(CC[C@@H](C(=O)O)[C@H]1CC[C@@]2(C)C3=C(CC[C@]12C)[C@@]1(C)CC[C@H](O)C(C)(C)[C@@H]1CC3)C(C)C [compound 8, eburicoic acid] |  | 12 ± 0.4 µg/mL (≈ 25.5 µM)

Reference: article PMC6278467, “Isolation and Identification of Potent Antidiabetic Compounds from Antrodia cinnamomea—An Edible Taiwanese Mushroom” (Molecules, 2018)
